According to ChEMBL document CHEMBL6083254, “Optimization of B-Ring-Functionalized Antimalarial Tambjamines and Prodiginines” (J Med Chem, 2024):
The source made the active and inactive calls. The rule behind the calls is not given here.

Tests used:
Plasmodium falciparum [1] = experiment: microbe, parasite or virus in culture; conditions: Tm90-C2B, 72 h
[2] = Apparent oral clearance in ICR-CD1 mouse plasma at 40 mg/kg, po; assay type: ADME, organism-based; conditions: in vivo
Plasmodium yoelii [3] = experiment: Antiplasmodial activity against asexual erythrocytic stage of Plasmodium yoelii infected in female CFI mouse model at 25 mg/kg, po administered once daily for 4 days and measured on day 5 by Giemsa staining based microscopic analysis; assay type: functional, organism-based; conditions: time 5.0 day
Plasmodium berghei [4] = experiment: Antimalarial activity against liver-stage Plasmodium berghei sporozoites ANKA expressing GFP infected in po dosed female Albino C57BL/6 mouse assessed as reduction in parasite load measured after 24 to 48 hrs by IVIS imaging analysis; assay type: functional, organism-based; conditions: dose 20-40 mg/kg, time 24-48 hrs
Plasmodium yoelii [5] = experiment: Antiplasmodial activity against asexual erythrocytic stage of Plasmodium yoelii infected in po dosed female CFI mouse model assessed as reduction in parasitemia administered once daily for 4 days and measured on day 5 by Giemsa staining based microscopic analysis; assay type: functional; conditions: 120 h, time 5 day
[6] = AUC (0 to infinity) in ICR-CD1 mouse liver at 40 mg/kg, po; assay type: ADME, organism-based
Plasmodium yoelii [7] = experiment: Antiplasmodial activity against asexual erythrocytic stage of Plasmodium yoelii infected in female CFI mouse model assessed as reduction in parasitemia at 1 mg/kg, po administered once daily for 4 days and measured on day 5 by Giemsa staining based microscopic analysis relative to control; assay type: functional; parameters: scale not given: the % may be the effect or the level left; conditions: time 5 day
[8] = Half life in ICR-CD1 mouse liver at 40 mg/kg, po; assay type: ADME, organism-based
[9] = %AUCextra in ICR-CD1 mouse liver at 40 mg/kg, po; assay type: ADME, organism-based; conditions: in vivo
[10] = molecular target: T1, Voltage-gated inwardly rectifying potassium channel KCNH2 (Homo sapiens, UniProt Q12809); experiment: Inhibition of hERG expressed in CHO-K1 cells at 0.313 uM relative to control; assay type: toxicity, cell-based; conditions: cho-k1, 0.313 µM
T1 sequence (Q12809 whole entry): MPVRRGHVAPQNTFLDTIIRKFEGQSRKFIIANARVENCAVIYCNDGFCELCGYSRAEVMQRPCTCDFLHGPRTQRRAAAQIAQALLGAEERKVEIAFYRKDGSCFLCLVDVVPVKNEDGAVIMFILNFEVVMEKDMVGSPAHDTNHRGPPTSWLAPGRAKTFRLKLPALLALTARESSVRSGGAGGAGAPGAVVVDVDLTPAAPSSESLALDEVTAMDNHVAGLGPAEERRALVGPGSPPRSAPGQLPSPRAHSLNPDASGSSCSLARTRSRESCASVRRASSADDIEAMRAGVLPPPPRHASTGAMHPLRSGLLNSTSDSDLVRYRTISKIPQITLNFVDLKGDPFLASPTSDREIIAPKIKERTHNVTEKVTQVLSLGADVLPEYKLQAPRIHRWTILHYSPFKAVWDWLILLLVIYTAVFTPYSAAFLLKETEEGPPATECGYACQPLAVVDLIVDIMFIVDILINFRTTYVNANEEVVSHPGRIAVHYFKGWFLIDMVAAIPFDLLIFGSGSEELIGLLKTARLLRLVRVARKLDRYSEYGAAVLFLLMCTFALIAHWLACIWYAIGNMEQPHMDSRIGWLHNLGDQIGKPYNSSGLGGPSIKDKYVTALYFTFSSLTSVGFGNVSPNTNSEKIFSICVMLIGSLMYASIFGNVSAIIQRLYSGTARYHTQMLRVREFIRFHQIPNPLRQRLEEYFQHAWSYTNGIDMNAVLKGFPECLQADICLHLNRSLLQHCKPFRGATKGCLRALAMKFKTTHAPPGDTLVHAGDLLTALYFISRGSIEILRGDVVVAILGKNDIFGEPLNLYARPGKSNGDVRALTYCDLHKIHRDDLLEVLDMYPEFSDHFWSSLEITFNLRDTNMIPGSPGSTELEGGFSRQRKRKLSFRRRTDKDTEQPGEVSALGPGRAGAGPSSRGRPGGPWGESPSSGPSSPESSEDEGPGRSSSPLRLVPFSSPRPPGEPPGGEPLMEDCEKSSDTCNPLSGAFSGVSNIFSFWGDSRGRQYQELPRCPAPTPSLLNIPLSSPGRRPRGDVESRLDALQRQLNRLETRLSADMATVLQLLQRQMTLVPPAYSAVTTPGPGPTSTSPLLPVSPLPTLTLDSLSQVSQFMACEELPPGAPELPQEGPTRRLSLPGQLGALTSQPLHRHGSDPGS

[11] = AUClast in ICR-CD1 mouse liver at 40 mg/kg, po; assay type: ADME, organism-based
[12] = %AUCextra in ICR-CD1 mouse plasma at 40 mg/kg, po; assay type: ADME, organism-based; conditions: in vivo
[13] = Cmax in ICR-CD1 mouse liver at 40 mg/kg, po; assay type: ADME, organism-based
[14] = Tmax in ICR-CD1 mouse plasma at 40 mg/kg, po; assay type: ADME, organism-based
[15] = Mutagenicity in Salmonella typhimurium TA100 at 10 uM in absence of S9 fraction incubated for 5 days by AMES assay; assay type: toxicity; conditions: salmonella enterica subsp. enterica serovar typhimurium, s9, 120 h, time 5 day
Plasmodium berghei [16] = experiment: Antimalarial activity against liver-stage Plasmodium berghei sporozoites ANKA expressing GFP infected female Albino C57BL/6 mouse assessed as reduction in parasite growth at 40 mg/kg, po measured at 72 hrs by IVIS imaging analysis; assay type: functional; parameters: scale not given: the % may be the effect or the level left
Plasmodium falciparum [17] = experiment: microbe, parasite or virus in culture; conditions: D6, 72 h
HepG2 = experiment: Cytotoxicity against human HepG2 cells assessed as cell viability incubated for 72 hrs by MTT assay; assay type: toxicity, cell-based; conditions: hepg2
Plasmodium falciparum [18] = experiment: microbe, parasite or virus in culture; conditions: Dd2, 72 h
[19] = MRTlast in ICR-CD1 mouse plasma at 40 mg/kg, po; assay type: ADME, organism-based
[20] = AUC (0 to infinity) in ICR-CD1 mouse plasma at 40 mg/kg, po; assay type: ADME, organism-based; conditions: in vivo
[21] = Metabolic stability in human liver microsomes assessed as intrinsic clearance measured upto 60 mins LC-MS analysis
[22] = molecular target: T1, Voltage-gated inwardly rectifying potassium channel KCNH2; experiment: Inhibition of hERG expressed in CHO-K1 cells at 2.5 uM relative to control; assay type: toxicity, cell-based; conditions: cho-k1, 2.5 µM
[23] = molecular target: T1, Voltage-gated inwardly rectifying potassium channel KCNH2; experiment: Inhibition of hERG expressed in CHO-K1 cells at 5 uM relative to control; assay type: toxicity, cell-based; conditions: cho-k1, 5 µM
[24] = molecular target: T1, Voltage-gated inwardly rectifying potassium channel KCNH2; experiment: Inhibition of hERG expressed in CHO-K1 cells at 10 uM relative to control; assay type: toxicity, cell-based; conditions: cho-k1, 10 µM
[25] = AUClast in ICR-CD1 mouse plasma at 40 mg/kg, po; assay type: ADME, organism-based
[26] = Mutagenicity in Salmonella typhimurium TA100 at 10 uM in presence of S9 fraction incubated for 5 days by AMES assay; assay type: toxicity, subcellular; conditions: salmonella enterica subsp. enterica serovar typhimurium, s9, 120 h, time 5 day
[27] = Metabolic stability in human liver microsomes assessed as half life measured upto 60 mins LC-MS analysis
Plasmodium berghei [28] = experiment: Antimalarial activity against blood-stage Plasmodium berghei sporozoites ANKA expressing GFP infected in po dosed female Albino C57BL/6 mouse assessed as reduction in parasite load measured after 72 hrs by flow cytometry analysis; assay type: functional, organism-based; conditions: dose 20-40 mg/kg
[29] = Cmax in ICR-CD1 mouse plasma at 40 mg/kg, po; assay type: ADME, organism-based
Plasmodium berghei [30] = experiment: Antimalarial activity against liver-stage Plasmodium berghei sporozoites ANKA expressing GFP infected female Albino C57BL/6 mouse assessed as reduction in parasite growth at 40 mg/kg, po measured at 48 hrs by IVIS imaging analysis; assay type: functional; parameters: scale not given: the % may be the effect or the level left
[31] = Apparent oral clearance in ICR-CD1 mouse liver at 40 mg/kg, po; assay type: ADME, organism-based
[32] = Mutagenicity in Salmonella typhimurium TA98 at 10 uM in presence of S9 fraction incubated for 5 days by AMES assay; assay type: toxicity, subcellular; conditions: salmonella enterica subsp. enterica serovar typhimurium, s9, 120 h, time 5 day
[33] = Tmax in ICR-CD1 mouse liver at 40 mg/kg, po; assay type: ADME, organism-based
[34] = Metabolic stability in mouse liver microsomes assessed as intrinsic clearance measured upto 60 mins LC-MS analysis
[35] = molecular target: T1, Voltage-gated inwardly rectifying potassium channel KCNH2; experiment: Inhibition of hERG expressed in CHO-K1 cells at 0.625 uM relative to control; assay type: toxicity, cell-based; conditions: cho-k1, 0.625 µM
[36] = Mutagenicity in Salmonella typhimurium TA98 at 10 uM in absence of S9 fraction incubated for 5 days by AMES assay; assay type: toxicity; conditions: salmonella enterica subsp. enterica serovar typhimurium, s9, 120 h, time 5 day
Plasmodium yoelii [37] = experiment: Antiplasmodial activity against asexual erythrocytic stage of Plasmodium yoelii infected in female CFI mouse model assessed as reduction in parasitemia at 10 mg/kg, po administered once daily for 4 days and measured on day 5 by Giemsa staining based microscopic analysis relative to control; assay type: functional; parameters: scale not given: the % may be the effect or the level left; conditions: time 5 day
[38] = Aqueous solubility of compound in PBS buffer at pH 7.4 incubated for 90 mins by UV-vis spectroscopic analysis; conditions: pH 7.4, 1.5 h
in vitro = conditions: human
Description: Selectivity index, ratio of IC50 for cytotoxicity against human HepG2 cells assessed as cell viability to IC50 for antiplasmodial activity against asexual erythrocytic stage of Plasmodium falciparum D6 assessed as inhibition of parasitic growth incubated

[39] = Half life in ICR-CD1 mouse plasma at 40 mg/kg, po; assay type: ADME, organism-based
[40] = molecular target: T1, Voltage-gated inwardly rectifying potassium channel KCNH2; experiment: Inhibition of hERG expressed in CHO-K1 cells at 1.25 uM relative to control; assay type: toxicity, cell-based; conditions: cho-k1, 1.25 µM
[41] = Metabolic stability in mouse liver microsomes assessed as half life measured upto 60 mins LC-MS analysis
[42] = MRTlast in ICR-CD1 mouse liver at 40 mg/kg, po; assay type: ADME, organism-based

Compound: CCCCCc1cc(/C=C2\N=C(c3ccc[nH]3)C=C2Oc2ccccc2)[nH]c1C.Cl
- IC50 (Plasmodium falciparum [1]): 8.74 nM
- CL/F [2]: 3.32 mL/min/kg
- Activity (Plasmodium yoelii [3]): Active
- Activity (Plasmodium berghei [4]): Dose-dependent-effect
- ED50 (Plasmodium yoelii [5]; Plasmodium yoelii, po, read-out: ED50): 0.99 mg/kg/day
- ED50 (Plasmodium yoelii [5]): 1.11 mg/kg/day
- AUC(0-inf) [6]: 32000 ng·h/mL
- Activity (Plasmodium yoelii [7]): 54.6%
- half-life [8]: 5.03 h
- %AUCextra [9]: 0.267%
- inhibition (INH) [10]: 0.24%
- AUC(0-t) [11]: 31900 ng·h/mL
- %AUCextra [12]: 0.426%
- Cmax [13]: 1130 ng/mL
- Tmax [14]: 30 h
- Activity [15]: Non-toxic
- Activity (Plasmodium berghei [16]): 74%
- IC50 (Plasmodium falciparum [17]): 7.08 nM
- IC50 (HepG2): 6260 nM
- IC50 (Plasmodium falciparum [18]): 3.87 nM
- MRT last [19]: 28.3 h
- AUC [20]: 5974 ng·h/mL
- microsomal CLint at 1 h [21]: 4.02 µL/min/mg
- inhibition (INH) [22]: 10.3%
- inhibition (INH) [23]: 10.3%
- inhibition (INH) [24]: 17.5%
- AUC(0-t) [25]: 5950 ng·h/mL
- Activity [26]: Non-toxic
- half-life at 1 h [27]: > 1 h
- Activity (Plasmodium berghei [28]): Dose-dependent-effect
- Cmax [29]: 199 ng/mL
- Activity (Plasmodium berghei [30]): 43%
- CL/F [31]: 0.615 mL/min/kg
- Activity [32]: Non-toxic
- Tmax [33]: 24 h
- microsomal CLint at 1 h [34]: 25.2 µL/min/mg
- inhibition (INH) [35]: 7.31%
- Activity [36]: Non-toxic
- Activity (Plasmodium yoelii [37]): 100%
- solubility [38]: < 3.125 µM
- selectivity ratio (in vitro): 884
- half-life [39]: 6.41 h
- inhibition (INH) [40]: 9.85%
- half-life at 1 h [41]: 0.915 h
- MRT last [42]: 29.1 h
